The test deals with Crotalus atrox venom-enhanced tissue-type plasminogen activator initiated fibrinolysis. Briefly: Thrombelastography of human plasma pretreated with iron and/or CO before venom exposure in the presence of tPA (Example II). Conditions: 100 IU/ml tPA, vs matched samples without or with venom exposure (0.5 μg/ml). The test is classed as biochemical. Here is the method:
Two hundred mg of lyophilized, pooled venom was obtained from four western diamondback rattlesnakes (Crotalus atrox) for experimentation. Venom was reconstituted in calcium-free phosphate buffered saline (PBS, Sigma-Aldrich, Saint Louis, Mo., USA) at a concentration of 20 mg/ml, aliquoted, and then stored at −80° C. until experimentation at the University of Arizona.
Pooled normal plasma (George King Bio-Medical, Overland Park, Kans., USA) anticoagulated with sodium citrate was rapidly thawed at 37° C. and used for experimentation. To assess the effects of pretreatment of antifibrinolytic plasma proteins with iron, CO, or both, 1% additions of PBS, ferric chloride (FeCl3, 99.9% pure, Sigma-Aldrich, Saint Louis, Mo., USA) in PBS, or CORM-2 (tricarbonyldichlororuthenium (II) dimer, a CO releasing molecule, Sigma-Aldrich, Saint Louis, Mo., USA) dissolved in dimethyl sulfoxide (DMSO, Sigma-Aldrich, Saint Louis, Mo., USA) were used. […] Plasma was exposed to these various agents for at least 5 min prior to incubations with venom.
The final volume for all subsequently described plasma sample mixtures was 359.4 μl. Sample composition consisted of […] of plasma; 10 μl of tissue factor reagent (0.1% final concentration in distilled water; Diagnostica Stago S.A.S., Asnieres sur Seine, France), 10 μl of tissue type plasminogen activator (tPA, 580 IU/μg, Genentech, Inc., San Francisco, Calif., USA; 100 IU/ml final concentration) and 3.4 μl of PBS or venom (final concentration 0.5-2.0 μg/ml). […] The aforementioned plasma and venom mixtures were placed in a disposable cup in a computer-controlled Thrombelastograph® hemostasis system (Model 5000, Haemoscope Corp., Niles, Ill., USA) and incubated for 5 min at 37° C., with addition of 20 μl of 200 mM CaCl2) as the last step to initiate clotting. Data were collected at 37° C. until clot lysis time (CLT) was observed. The following elastic modulus-based parameters previously described (see, Nielsen V G, Pretorius E. Blood Coagul Fibrinolysis 2014; 25:695-702) were determined: time to maximum rate of thrombus generation (TMRTG): this is the time interval (min) observed prior to maximum speed of clot growth; maximum rate of thrombus generation (MRTG): this is the maximum velocity of clot growth observed (dynes/cm^2/sec); total thrombus generation (TTG, dynes/cm^2), the final viscoelastic resistance observed after clot formation; time to maximum rate of lysis (TMRL, min), maximum rate of lysis (MRL, dynes/cm^2/sec) and CLT (min). Lastly, to assess if venom had thrombolytic properties that were tPA independent, n=4 replicates were performed wherein no tPA was added and data were collected for 3 h.
Data are presented as mean±SD. All conditions unless otherwise indicated were represented by n=8 replicates. This number of replicates reliably provides a statistical power>0.8 for P<0.05 (see, Nielsen V G, Pretorius E. Blood Coagul Fibrinolysis 2014; 25:695-702). A commercially available statistical program was used for two-way analysis of variance (ANOVA) to assess interactions of venom and tPA on coagulation kinetics and interactions of iron and CO on venom-enhanced fibrinolysis (SigmaStat 3.1, Systat Software, Inc., San Jose, Calif., USA). Additional one-way ANOVA followed by Holm-Sidak post hoc analyses were performed to assess differences between the conditions. Graphics depicting viscoelastic data were generated with a commercially available program (OrigenPro 7.5, OrigenLab Corporation, Northampton, Mass., USA).

Setting [1] is: 10 μM ferric chloride or 100 μM CORM-2.

For `[Cl][Fe]([Cl])[Cl]` [iron, ferric chloride], under setting [1], the “clot lysis time (CLT)” value is “significantly greater”, the “maximum rate of thrombus generation (MRTG)” value is “greater”, the “time to maximum rate of lysis (TMRL)” value was “significantly greater” and the “total thrombus generation (TTG)” value was “greater”. For the same compound, for the setting “10 μM ferric chloride”, the “maximum rate of lysis (MRL)” value is recorded as “significantly greater” and the “time to maximum rate of thrombus generation (TMRTG)” value is “significantly lesser”.
